Test results published in ChEMBL document CHEMBL2311464, “Potent inhibitors of CDK5 derived from roscovitine: synthesis, biological evaluation and molecular modelling” (Bioorg Med Chem Lett, 2013).

Legend:
[1] = Inhibition of porcine brain CK1 delta/epsilon using RRKHAAIGpSAYSITA as substrate measured after 30 mins by scintillation counting; set-up: species or system Sus scrofa
[2] = molecular target: Cyclin-dependent kinase 2/cyclin A (Homo sapiens, UniProt P24941); experiment: Inhibition of recombinant human CDK2/cyclin A after 30 mins by scintillation counting; type: protein-complex assay
[3] = molecular target: Glycogen synthase kinase-3 (Sus scrofa, UniProt B2LUN4+I6LNT8); experiment: Inhibition of porcine GSK-3alpha/beta using YRRAAVPPSPSLSRHSSPHQSpEDEEE as substrate measured after 30 mins by scintillation counting
cells = details: Homo sapiens, SH-SY5Y, 48 h
Description: Cytotoxicity against human SH-SY5Y cells after 48 hrs by MTS assay

[4] = molecular target: Cyclin-dependent kinase 5/CDK5 activator 1 (Homo sapiens, UniProt Q00535); experiment: Inhibition of recombinant human CDK5/p25 after 30 mins by scintillation counting; type: protein-complex assay
Sus scrofa = organism: Sus scrofa; experiment: Inhibition of porcine brain CK1 delta/epsilon using RRKHAAIGpSAYSITA as substrate at 0.1 uM measured after 30 mins by scintillation counting
SH-SY5Y [5] = experiment: Ratio of roscovitine IC50 to compound IC50 for human SH-SY5Y cells after 48 hrs by MTS assay; type: functional
[6] = molecular target: Dual specificity tyrosine-phosphorylation-regulated kinase 1A (Homo sapiens, UniProt Q13627); experiment: Inhibition of recombinant GST-fused human DYRK1A expressed in Escherichia coli using KKISGRLSPIMTEQ as substrate
SH-SY5Y [7] = experiment: Ratio of DRF53 IC50 to compound IC50 for human SH-SY5Y cells after 48 hrs by MTS assay; type: functional
[8] = molecular target: Cyclin-dependent kinase 1/cyclin B1 (Homo sapiens, UniProt P06493); experiment: Inhibition of CDK2/cyclin B (unknown origin) after 30 mins by scintillation counting
Sequence of Cyclin-dependent kinase 1/cyclin B1 (P06493 whole entry): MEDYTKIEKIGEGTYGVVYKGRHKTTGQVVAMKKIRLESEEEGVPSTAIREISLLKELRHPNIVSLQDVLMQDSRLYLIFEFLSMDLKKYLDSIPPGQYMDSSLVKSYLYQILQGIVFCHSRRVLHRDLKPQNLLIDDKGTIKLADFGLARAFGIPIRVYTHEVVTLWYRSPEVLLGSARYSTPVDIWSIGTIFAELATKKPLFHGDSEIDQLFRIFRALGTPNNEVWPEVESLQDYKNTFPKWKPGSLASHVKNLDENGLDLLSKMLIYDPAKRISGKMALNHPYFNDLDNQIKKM
Sequence of Cyclin-dependent kinase 1/cyclin B1 (P14635 whole entry, further chain): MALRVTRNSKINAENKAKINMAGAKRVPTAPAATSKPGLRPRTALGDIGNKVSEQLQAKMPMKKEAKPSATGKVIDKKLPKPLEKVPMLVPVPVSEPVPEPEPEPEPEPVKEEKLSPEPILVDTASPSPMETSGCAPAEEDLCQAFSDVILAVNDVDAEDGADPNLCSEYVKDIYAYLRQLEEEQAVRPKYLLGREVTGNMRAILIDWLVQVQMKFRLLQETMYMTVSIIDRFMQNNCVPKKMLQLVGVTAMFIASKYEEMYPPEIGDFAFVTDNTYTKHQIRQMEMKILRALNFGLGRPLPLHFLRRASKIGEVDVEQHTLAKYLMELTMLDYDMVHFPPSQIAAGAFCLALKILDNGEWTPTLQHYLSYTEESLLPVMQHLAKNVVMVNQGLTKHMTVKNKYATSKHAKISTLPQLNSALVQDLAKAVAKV

Sequence of Cyclin-dependent kinase 5/CDK5 activator 1 (Q00535 whole entry): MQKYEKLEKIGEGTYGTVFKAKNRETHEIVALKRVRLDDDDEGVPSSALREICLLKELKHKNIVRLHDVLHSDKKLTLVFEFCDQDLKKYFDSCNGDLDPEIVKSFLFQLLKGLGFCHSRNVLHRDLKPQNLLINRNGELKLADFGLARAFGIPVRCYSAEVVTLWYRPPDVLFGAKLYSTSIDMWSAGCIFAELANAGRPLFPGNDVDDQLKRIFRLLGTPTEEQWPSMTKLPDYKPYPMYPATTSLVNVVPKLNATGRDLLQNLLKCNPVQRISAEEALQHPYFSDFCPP
Sequence of Cyclin-dependent kinase 5/CDK5 activator 1 (Q15078 whole entry, further chain): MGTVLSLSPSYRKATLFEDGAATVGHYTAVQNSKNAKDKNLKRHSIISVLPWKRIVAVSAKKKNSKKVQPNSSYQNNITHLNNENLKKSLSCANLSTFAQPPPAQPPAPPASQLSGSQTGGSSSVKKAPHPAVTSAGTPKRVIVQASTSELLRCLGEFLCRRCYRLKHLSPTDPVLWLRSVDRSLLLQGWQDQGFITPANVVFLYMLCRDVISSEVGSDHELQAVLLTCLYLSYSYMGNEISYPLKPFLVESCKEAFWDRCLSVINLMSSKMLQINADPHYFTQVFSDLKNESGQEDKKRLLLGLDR

SMILES | IC50 [1] [µM] | IC50 [2] [µM] | IC50 [3] [µM] | IC50 (cells) [µM] | IC50 [4] [µM] | inhibition (Sus scrofa) [%] | Ratio IC50 (SH-SY5Y [5]) | IC50 [6] [µM] | Ratio IC50 (SH-SY5Y [7]) | IC50 [8] [µM]
CC[C@@H](CO)Nc1nc(Nc2ccncn2)c2ncn(C(C)C)c2n1 | 8.3 | 2 | > 10 |  |  |  |  |  |  | 
CC[C@@H](CO)Nc1nc(Nc2ncccn2)c2ncn(C(C)C)c2n1 | > 10 | 7.3 | > 10 | 1.8 | 11 |  |  |  |  | 
CC(C)[C@H](CO)Nc1nc(Nc2ccncn2)c2ncn(C(C)C)c2n1 | 2.8 | 0.33 | > 10 | 1.8 | 0.73 |  |  |  |  | 
CC(C)[C@H](CO)Nc1nc(Nc2cccc(Cl)c2)c2ncn(C(C)C)c2n1 |  |  |  |  |  | 100 |  |  |  | 
CC[C@@H](CO)Nc1nc(Nc2cncnc2)c2ncn(C(C)C)c2n1 | 0.93 | 0.023 | > 10 | 1.8 | 0.076 |  |  |  |  | 
CC(C)[C@@H](CO)Nc1nc(Nc2ccncn2)c2ncn(C(C)C)c2n1 | 4.9 | 0.79 | 22 | 1.8 | 3.2 |  |  |  |  | 
CC[C@H](CO)Nc1nc(Nc2cccnc2)c2ncn(C(C)C)c2n1 | 1 | 0.05 | 10 | 1.8 | 0.025 |  |  |  |  | 
CC(C)[C@@H](CO)Nc1nc(Nc2ccncc2)c2ncn(C(C)C)c2n1 | 3.3 | 0.13 | 7.8 | 1.8 | 0.2 |  |  |  |  | 
CC(C)n1cnc2c(Nc3cncnc3)nc(Nc3cncnc3)nc21 | 0.22 | 0.17 | > 10 | 1.8 | 0.36 |  |  |  |  | 
CC(C)[C@H](CO)Nc1nc(Nc2ncccn2)c2ncn(C(C)C)c2n1 | > 10 | > 10 | > 10 | 1.8 | > 10 |  |  |  |  | 
CC[C@H](CO)Nc1nc(Nc2cncnc2)c2ncn(C(C)C)c2n1 | 0.6 | 0.018 | > 10 | 1.8 | 0.042 |  |  |  |  | 
CC(C)[C@@H](CO)Nc1nc(Nc2ccnnc2)c2ncn(C(C)C)c2n1 | 1.9 | 0.12 | 4.3 | 1.8 | 0.23 |  |  |  |  | 
CC[C@H](CO)Nc1nc(Nc2ccncc2)c2ncn(C(C)C)c2n1 | 1 | 0.038 | > 10 | 1.8 | 0.017 |  |  |  |  | 
CC(C)n1cnc2c(Nc3cncnc3)nc(Cl)nc21 | 2.3 | 0.18 | > 10 | 1.8 | 2.8 |  |  |  |  | 
CC(C)[C@@H](CO)Nc1nc(Nc2ncccn2)c2ncn(C(C)C)c2n1 | > 10 | 9 | > 10 | 1.8 | 10 |  |  |  |  | 
CC[C@H](CO)Nc1nc(Nc2ccccn2)c2ncn(C(C)C)c2n1 | 6.2 | 1 | 33 | 1.8 | 2.3 |  |  |  |  | 
CC[C@@H](CO)Nc1nc(Nc2ccnnc2)c2ncn(C(C)C)c2n1 | 1 | 0.029 | 7.3 | 1.8 | 0.042 |  |  |  |  | 
CC[C@H](CO)Nc1nc(NCc2ccccc2)c2ncn(C(C)C)c2n1 [SELICICLIB] | 2.3 |  |  | 17.4 |  |  |  |  |  | 
CC(C)n1cnc2c(Nc3ccnnc3)nc(Cl)nc21 | 1.1 | 1.6 | > 10 | 1.8 | 3 |  |  |  |  | 
CC[C@H](CO)Nc1nc(Nc2ccncn2)c2ncn(C(C)C)c2n1 | 5.8 | 1.2 | > 10 |  |  |  |  |  |  | 

SMILES | IC50 [1] [µM] | IC50 [2] [µM] | IC50 [3] [µM] | IC50 (cells) [µM] | IC50 [4] [µM] | inhibition (Sus scrofa) [%] | Ratio IC50 (SH-SY5Y [5]) | IC50 [6] [µM] | Ratio IC50 (SH-SY5Y [7]) | IC50 [8] [µM]
CC[C@H](CO)Nc1nc(Nc2ccnnc2)c2ncn(C(C)C)c2n1 | 0.5 | 0.072 | 13 | 1.8 | 0.06 |  |  |  |  | 
CC[C@@H](CO)Nc1nc(Nc2cccnc2)c2ncn(C(C)C)c2n1 | 2 | 0.014 | > 10 | 1.8 | 0.09 |  |  |  |  | 
CC(C)n1cnc2c(Nc3cnccn3)nc(Cl)nc21 | 7 | 3.1 | > 10 | 1.8 | 12 |  |  |  |  | 
CC(C)[C@H](CO)Nc1nc(Nc2ccnnc2)c2ncn(C(C)C)c2n1 | 0.8 | 0.028 | 6 | 1.8 | 0.041 |  |  |  |  | 
CC[C@@H](CO)Nc1nc(Nc2ccncc2)c2ncn(C(C)C)c2n1 | > 1 | 0.05 | 6 | 1.8 | 0.05 |  |  |  |  | 
CC[C@@H](CO)Nc1nc(Nc2ccccn2)c2ncn(C(C)C)c2n1 | 12 | 0.53 | 21 | 1.8 | 4.1 |  |  |  |  | 
CC(C)[C@H](CO)Nc1nc(Nc2ccncc2)c2ncn(C(C)C)c2n1 | 1.8 | 0.02 | 12 | 1.8 | 0.021 |  |  |  |  | 
CC(C)[C@@H](CO)Nc1nc(Nc2cncnc2)c2ncn(C(C)C)c2n1 | 2 | 0.11 | 16 | 1.8 | 0.37 |  |  |  |  | 
CC(C)[C@H](CO)Nc1nc(Nc2cccnc2)c2ncn(C(C)C)c2n1 | 2.2 | 0.018 | 7.3 | 1.8 | 0.022 |  |  |  |  | 
CC[C@H](CO)Nc1nc(Nc2ncccn2)c2ncn(C(C)C)c2n1 | > 10 | > 10 | > 10 | 1.8 | > 10 |  |  |  |  | 
CC(C)[C@@H](CO)Nc1nc(Nc2cccnc2)c2ncn(C(C)C)c2n1 | 2.7 | 0.12 | > 10 | 1.8 | 0.3 |  |  |  |  | 
CC(C)n1cnc2c(Nc3ncccn3)nc(Cl)nc21 | 8 | > 10 | > 10 | 1.8 | > 10 |  | 5 | > 10 | 5 | 
CC[C@H](CO)Nc1nc(Nc2cccc(-c3ccccn3)c2)c2ncn(C(C)C)c2n1 | 0.014 |  |  |  | 0.08 |  |  |  |  | 0.22
CC(C)[C@H](CO)Nc1nc(Nc2ccccn2)c2ncn(C(C)C)c2n1 | 6.2 | 0.8 | > 10 | 1.8 | 1.1 |  |  |  |  | 
CC(C)n1cnc2c(Nc3ccccn3)nc(Cl)nc21 | 3 | 6.2 | > 10 | 1.8 | 2.1 |  |  |  |  | 
CC(C)[C@@H](CO)Nc1nc(Nc2ccccn2)c2ncn(C(C)C)c2n1 | 11 | 1.2 | > 10 | 1.8 | 1.9 |  |  |  |  | 
CC(C)n1cnc2c(Nc3ccncn3)nc(Cl)nc21 | 8 | 13 | > 10 | 1.8 | > 10 |  | 5 | > 10 | 5 | 
CC(C)[C@H](CO)Nc1nc(Nc2cncnc2)c2ncn(C(C)C)c2n1 | 1.3 | 0.02 | 5 | 1.8 | 0.038 |  |  |  |  | 
CC(C)n1cnc2c(Nc3ccncc3)nc(Cl)nc21 | 2.1 | 0.7 | 18 | 1.8 | 7.4 |  |  |  |  | 
CC(C)n1cnc2c(Nc3cccnc3)nc(Cl)nc21 | 2.1 | 0.68 | > 10 | 1.8 | 1.1 |  |  |  |  | 
